≈ marks a conversion by molar mass, not a printed value.
Legend:
[1] = biological target: rat brain A1-receptors; details: prior work; cited from earlier work
[2] = biological target: T1, A1-adenosine receptors (Rattus norvegicus, UniProt P25099); assay: Competitive binding assay at A1 receptors ([3H]RPIA); details: for Ki: [3H]RPIA, rat brain membranes, read-out: Ki at central rat receptors, A1; for A2/A1 ratio: ratio of Ki values A2/A1
T1 construct: adenosine receptors in rat cerebral cortex membranes was assayed as described; from tissue; b141 says rat striatum
T1 sequence (P25099 1-326): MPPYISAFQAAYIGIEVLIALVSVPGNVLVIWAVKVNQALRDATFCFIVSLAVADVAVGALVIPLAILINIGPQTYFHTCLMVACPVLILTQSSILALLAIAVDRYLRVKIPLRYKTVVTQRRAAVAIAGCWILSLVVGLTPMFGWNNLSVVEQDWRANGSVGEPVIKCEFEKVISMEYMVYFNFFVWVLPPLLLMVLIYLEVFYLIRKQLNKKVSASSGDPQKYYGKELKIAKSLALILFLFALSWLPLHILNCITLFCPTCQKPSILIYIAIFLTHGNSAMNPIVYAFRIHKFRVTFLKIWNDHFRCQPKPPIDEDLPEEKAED
Description: Table 4 also indicates the synthesis method used for each compound therein.
(§1) A1 ligand = [^3 H]RPIA, A2 ligand = [^3 H]CGS21680
(§2) Inhibition of binding by a range of concentrations of an adenosine derivative was assessed in triplicate in at least three separate experiments. At least seven different concentrations spanning three orders of magnitude, adjusted appropriate for the IC50 of each compound were used. IC50 values Ci/mmol) or [^3 H]CGS21680. Inhibition of [^3 H]NECA binding of to A2 -adenosine receptors in rat striatal membranes were measured as described, except that 5 mM theophylline was used to define non-specific binding. N^6 -Cyclopentyladenosine was present at 50 nM to inhibit binding of the ligand at A1 -adenosine receptors. IC50 values were converted to Ki -values as described.

[3] = biological target: T2, A2-adenosine receptors (Rattus norvegicus, UniProt P30543); assay: Competitive binding assay at A2 receptors ([3H]CGS21680); details: [3H]CGS21680, rat striatum; read-out: Ki at central rat receptors, A2
T2 construct: adenosine receptors in rat striatal membranes were measured as described; from tissue; host or cells: rat striatal membranes
Description: The Ki values (in nM) for A1 and A2 binding in rat striatum are presented in Table 4 with the relative selectivities expressed as the ratio of Ki values. […] Table 4 also indicates the synthesis method used for each compound therein.
as §1, §2

[4] = biological target: T1, A1-adenosine receptors; format: binding; details: 0.75 h; for inhibition at 0.02 µM: 20 nM
Description: The degree of irreversible binding was determined as previously described and the percent inhibition of selected compounds is presented in Table 5.
Irreversible Binding to Rat Brain. For studies of irreversible incorporation, membranes were prepared as described above and then incubated with the indicated (Tables I and II) concentration of ligand for 45 minutes at 37° C. […] Membranes were then suspended in Buffer A containing 10^-4 M 3-isobutyl-1-methylxanthine (IBMX) and incubated at 25° C. for 18 hours with shaking. Membranes were then washed twice with Buffer A, treated with adenosine deaminase as described above, and used in radioligand binding studies as described above.
The long treatment with IBMX was found necessary to remove all of the non-incorporated ligands from membranes. Multiple washes (up to 8) with buffer alone were insufficient to remove all the reversibly bound ligands.

[5] = Solubility of analogs in pH 7.2 phosphate buffer; format: physicochemical; details: aqueous buffer; pH 7.2 phosphate buffer with DMSO, 2-3 h room temperature, absorbance at 310 nm, mean of 3
Description: The method for determining the solubilities of the xanthines is detailed in the Experimental Section below.
Solubility of Analogs. To 675 uL of pH 7.2 phosphate buffer was added 25 uL of a DMSO solution (approx. 10 mM) of the xanthine to be assayed. This was stirred for one minutes by a vortex mixer then left at room temperature for 2-3 hours. In each case (except where noted) a fine precipitate resulted which was collected by centrifugation at the end of the waiting period. After the dissolution period, a 100 uL aliquot of the supernatant was added to 1.0 mL of methanol and the absorbance measured at 310 nm using an extinction coefficient of 28,180 for calculating the concentration. Each xanthine was assayed 3 times and the concentration represent the averages of these 3 determinations.

T2 sequence (P30543 whole entry): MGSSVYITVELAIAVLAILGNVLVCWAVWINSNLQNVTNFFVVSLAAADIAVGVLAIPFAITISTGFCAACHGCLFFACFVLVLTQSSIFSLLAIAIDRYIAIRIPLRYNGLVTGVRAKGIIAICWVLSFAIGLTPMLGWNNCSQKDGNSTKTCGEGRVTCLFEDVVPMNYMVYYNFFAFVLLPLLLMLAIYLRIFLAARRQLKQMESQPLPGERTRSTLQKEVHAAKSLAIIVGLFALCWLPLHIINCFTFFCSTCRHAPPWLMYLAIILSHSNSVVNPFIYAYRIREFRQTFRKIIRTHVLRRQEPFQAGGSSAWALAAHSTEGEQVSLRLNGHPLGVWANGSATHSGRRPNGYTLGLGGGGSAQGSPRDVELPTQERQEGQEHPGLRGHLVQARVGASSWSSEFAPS

| SMILES | Ki [1] [nM] | Ki [2] [nM] | A2/A1 ratio [2] | Ki [3] [nM] | inhibition at 0.02 µM [4] [%] | inhibition at 0.05 µM ([4]; 50 nM) [%] | solubility [5] [µM] | inhibition at 0.005 µM ([4]; 5 nM) [%] |
| --- | --- | --- | --- | --- | --- | --- | --- | --- |
| CCCn1c(=O)c2[nH]c(-c3ccc(OCC(=O)NCCN)cc3)nc2n(CCC)c1=O [XAC, 8-[4-[[[[(2-aminoethyl)-amino]carbonyl]methyl]oxy]phenyl]-1,3-dipropylxanthine] | 1.2 | – | – | – | – | – | – | – |
| CCCn1c(=O)c2[nH]c(-c3ccc(OCC(=O)NCCNC(=S)Nc4cc(N=C=S)cc(NC(=S)NCC(=O)OC(C)(C)C)c4)cc3)nc2n(CCC)c1=O | – | 8.3 ± 2.2 | 397 | 3290 | – | – | – | – |
| CCCn1c(=O)c2[nH]c(-c3ccc(OCC(=O)NCCNC(=S)Nc4cc(N=C=S)cc(C(=O)NCCNC(=O)CCc5ccc(O)cc5)c4)cc3)nc2n(CCC)c1=O [Compound 17] | – | 7.08 ± 1.91 | 198 | 1400 | – | – | – | – |
| CCCn1c(=O)c2[nH]c(-c3ccc(OCC(=O)NCCNC(=S)Nc4cc(N=C=S)cc(N=C=S)c4)cc3)nc2n(CCC)c1=O [Compound 23, 1,3-Dipropyl-8-(4-(((((2-((((3,5-diisothiocyanatophenyl)amino)thiocarbonyl)amino)ethyl)amino)carbonyl)methyl)oxy)phenyl)-xanthine] | – | 3.96 ± 0.59 | 894 | 3540 ± 936 | – | – | – | – |
| CCCn1c(=O)c2[nH]c(-c3ccc(OCC(=O)NCCNC(=S)Nc4cc(N=C=S)cc(C(=O)NCCN(C)C)c4)cc3)nc2n(CCC)c1=O [Compound 14, 1,3-Dipropyl-8-(4-(((((2-((((3-(2-dimethylaminoethylcarboxamide)-5-isothiocyanatophenyl)amino)thiocarbonyl)amino)ethyl)amino)carbonyl)methyl)oxy)phenyl)xanthine] | – | 7.62 ± 2.19 | 65 | 497 ± 74 | 30 ± 8.7 | 46.3 ± 21.8 | 28.7 ± 0.03 (≈ 21.1 µg/mL) | – |
| CCCn1c(=O)c2[nH]c(-c3ccc(OCC(=O)NCCNC(=S)Nc4cc(N=C=S)cc(NC(=S)NCCN(C)C)c4)cc3)nc2n(CCC)c1=O [Compound 24] | – | 77.2 ± 2.5 | 25 | 1910 ± 303 | – | – | – | – |
| CCCn1c(=O)c2[nH]c(-c3ccc(OCC(=O)NCCNC(=S)Nc4cc(N=C=S)cc(C(=O)OCC)c4)cc3)nc2n(CCC)c1=O [Compound 11, 1,3-Dipropyl-8-(4-(((((2-((((3-carbethoxy-5-isothiocyanatophenyl)amino)thiocarbonyl)amino)ethyl)amino)carbonyl)methyl)oxyl)phenyl)xanthine] | – | 41.6 ± 8.2 | 19 | 815 ± 145 | – | – | 9.33 ± 0.43 (≈ 6.46 µg/mL) | – |
| CCCn1c(=O)c2[nH]c(-c3ccc(OCC(=O)NCCNC(=S)Nc4cc(N=C=S)cc(NC(=S)NCCNC(C)=O)c4)cc3)nc2n(CCC)c1=O [Compound 25] | – | 57.6 ± 15.7 | 44 | 2540 ± 283 | – | – | > 100 | – |
| CCCn1c(=O)c2[nH]c(-c3ccc(OCC(=O)NCCNC(=S)Nc4cc(N=C=S)cc(NC(=S)NCCNc5ccc(N=[N+]=[N-])cc5[N+](=O)[O-])c4)cc3)nc2n(CCC)c1=O | – | 27.3 ± 7.2 | 31 | 842 | – | – | – | – |
| CCCn1c(=O)c2[nH]c(-c3ccc(OCC(=O)NCCNC(=S)Nc4cc(N=C=S)cc(C(=O)NCCNC(C)=O)c4)cc3)nc2n(CCC)c1=O [Compound 16, 1,3-Dipropyl-8-(4-(((((2-((((3-(2-acetylaminoethylcarboxamide)-5-isothiocyanatophenyl)amino)thiocarbonyl)amino)ethyl)amino)carbonyl)methyl)oxy)phenyl)xanthine] | – | 7.01 ± 0.52 | 35 | 247 ± 36 | – | – | > 1000 | – |
| CCCn1c(=O)c2[nH]c(-c3ccc(OCC(=O)NCCNC(=S)Nc4cccc(N=C=S)c4)cc3)nc2n(CCC)c1=O [Compound 7] | 2.4 | 2.39 ± 0.35 | 144 | 343 | – | – | 90.1 ± 0.56 (≈ 55.9 µg/mL) | – |
| CCCn1c(=O)c2[nH]c(-c3ccc(OCC(=O)NCCNC(=S)Nc4cc(N=C=S)cc(C(=O)NCCNC(=O)CBr)c4)cc3)nc2n(CCC)c1=O [R' = CONH(CH2)2 NHCOCH2 Br] | – | 15.8 | 44 | 688 | – | – | – | – |
| CCCn1c(=O)c2[nH]c(-c3ccc(OCC(=O)NCCNC(=S)Nc4cc(N=C=S)cc(C(=O)NCCNC(=O)CCCC[C@@H]5SC[C@@H]6NC(=O)N[C@@H]65)c4)cc3)nc2n(CCC)c1=O [R' = CONH(CH2)2 NHCO-biotin] | – | 20.1 ± 3.3 | 572 | 11500 | – | – | – | – |
| CCCn1c(=O)c2[nH]c(-c3ccc(OCC(=O)NCCNC(=S)Nc4cc(N=C=S)cc(C(N)=O)c4)cc3)nc2n(CCC)c1=O [Compound 13, 1,3-Dipropyl-8-(4-(((((2-((((3-carboxamide-5-isothiocyanatophenyl)amino)thiocarbonyl)amino)ethyl)amino)carbonyl)methyl)oxy)phenyl)xanthine] | – | 9.47 ± 2.99 | 39 | 365 ± 35 | 90.3 ± 7 | – | 31.4 ± 0.39 (≈ 20.8 µg/mL) | 68 ± 7.5 |
| CCCn1c(=O)c2[nH]c(-c3ccc(OCC(=O)NCCNC(=S)Nc4cc(N=C=S)cc(C(=O)OC(=O)c5cc(N=C=S)cc(N=C=S)c5)c4)cc3)nc2n(CCC)c1=O | – | 45 ± 3.5 | 11 | 493 ± 200 | – | – | – | – |
| CCCn1c(=O)c2[nH]c(-c3ccc(OCC(=O)NCCNC(=S)Nc4cc(CO)cc(N=C=S)c4)cc3)nc2n(CCC)c1=O [Compound 9, 1,3-Dipropyl-8-(4-(((((2-((((3-hydroxymethyl-5-isothiocyanatophenyl)amino)thiocarbonyl)amino)ethyl)amino)carbonyl)methyl)oxyl)phenyl)xanthine] | – | 13.4 ± 2.64 | 32 | 433 ± 45 | – | – | 10.8 ± 0.03 (≈ 7.03 µg/mL) | – |
| CCCn1c(=O)c2[nH]c(-c3ccc(OCC(=O)NCCNC(=S)Nc4cc(N=C=S)cc(NC(=S)NCCNC(=O)c5ccc(N=[N+]=[N-])cc5O)c4)cc3)nc2n(CCC)c1=O | – | 25.2 | 14 | 341 | – | – | – | – |
| CCCn1c(=O)c2[nH]c(-c3ccc(OCC(=O)NCCNC(=S)Nc4ccc(N=C=S)cc4)cc3)nc2n(CCC)c1=O [p-DITC-XAC (2b)] | 6.6 | – | – | – | – | – | – | – |
| CCCn1c(=O)c2[nH]c(-c3ccc(OCC(=O)NCCNC(=S)Nc4cc(N=C=S)cc(NC(=S)NCCNC(=S)Nc5ccc(C(=O)O)c(-c6c7ccc(=O)cc-7oc7cc(O)ccc67)c5)c4)cc3)nc2n(CCC)c1=O [R' = NHCSNH(CH2)2 NHCSNH-fluorescein] | – | 234 ± 32.5 | 8 | 1790 | – | – | – | – |
| CCCn1c(=O)c2[nH]c(-c3ccc(OCC(=O)NCCNC(=S)Nc4cc(N=C=S)cc(C(=O)NCCNc5ccc([N+](=O)[O-])c6nonc56)c4)cc3)nc2n(CCC)c1=O [R' = CONH(CH2)2 NH-NBD] | – | 18.1 | 73 | 1330 | – | – | – | – |
| CCCn1c(=O)c2[nH]c(-c3ccc(OCC(=O)NCCNC(=S)Nc4cccc(N=C=S)n4)cc3)nc2n(CCC)c1=O [Compound 8, 1,3-Dipropyl-8-(4-(((((2-((((6-isothiocyanatopyrido)amino)thiocarbonyl)amino)ethyl)amino)carbonyl)methyl)oxy)phenyl)xanthine] | – | 16.2 ± 1.96 | 27 | 432 ± 20 | – | – | 17.5 ± 0.06 (≈ 10.9 µg/mL) | – |

Reference: patent US5310916A, “Trifunctional agents useful as irreversible inhibitors of A1-adenosine receptors” (The United States of America as represented by the …, priority 1990, dated 1994)
